Legend:
Type in all cases: in vivo
[1] = tested on: ryegrass, Italian (italian ryegrass, Lolium multiflorum); assay: Test A postemergence application, visual injury rating 0-100
Method in brief: (§1)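 Scale 0–100 (no effect to complete control), visual, versus untreated controls, read 10 days after application. Application: preemergence directed spray onto seeded loam–sand soil, or postemergence to young plants; formulation in non-phytotoxic solvent with surfactant.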

[2] = tested on: green foxtail (Setaria viridis); assay: as above
Method in brief: as §1

[3] = tested on: palmer (palmer amaranth, palmer pigweed, Amaranthus palmeri); assay: as above
Method in brief: as §1

[4] = tested on: ragweed (common ragweed, Ambrosia artemisiifolia); assay: as above
Method in brief: as §1

[5] = tested on: horseweed (Erigeron canadensis); assay: as above
Method in brief: as §1

[6] = tested on: galium (catchweed bedstraw, Galium aparine); assay: as above
Method in brief: as §1

[7] = tested on: oat, wild (wild oat, Avena fatua); assay: as above
Method in brief: as §1

[8] = tested on: blackgrass (Alopecurus myosuroides); assay: as above
Method in brief: as §1

soybean (Glycine max) [9] = assay: as above
Method in brief: as §1

[10] = tested on: wheat (Triticum aestivum); assay: as above
Method in brief: as §1

kochia (Bassia scoparia) [11] = assay: as above
Method in brief: as §1

[12] = tested on: barnyardgrass (Echinochloa crus-galli); assay: as above
Method in brief: as §1

corn (Zea mays) [13] = assay: as above
Method in brief: as §1

[14] = tested on: ryegrass, Italian (italian ryegrass, Lolium multiflorum); assay: Test A preemergence soil spray, visual injury rating 0-100; conditions: 10 days
Method in brief: as §1

[15] = tested on: green foxtail (Setaria viridis); assay: as above; conditions: 10 days
Method in brief: as §1

[16] = tested on: palmer (palmer amaranth, palmer pigweed, Amaranthus palmeri); assay: as above; conditions: 10 days
Method in brief: as §1

[17] = tested on: ragweed (common ragweed, Ambrosia artemisiifolia); assay: as above; conditions: 10 days
Method in brief: as §1

[18] = tested on: oat, wild (wild oat, Avena fatua); assay: as above; conditions: 10 days
Method in brief: as §1

[19] = tested on: blackgrass (Alopecurus myosuroides); assay: as above; conditions: 10 days
Method in brief: as §1

soybean (Glycine max) [20] = assay: as above; conditions: 10 days
Method in brief: as §1

[21] = tested on: wheat (Triticum aestivum); assay: as above; conditions: 10 days
Method in brief: as §1

kochia (Bassia scoparia) [22] = assay: as above; conditions: 10 days
Method in brief: as §1

[23] = tested on: barnyardgrass (Echinochloa crus-galli); assay: as above; conditions: 10 days
Method in brief: as §1

corn (Zea mays) [24] = assay: as above; conditions: 10 days
Method in brief: as §1

rice (Oryza sativa) = assay: Test B flooded paddy test, visual plant response rating 0-100; conditions: 250 g ai/ha, Flood, applied to paddy water, evaluated after 13 days
Method in brief: (§2)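 In this flooded assay, 2-leaf seedlings received compound through the water layer, kept at 3 cm over the soil. Plants were held 13 days in a greenhouse and then visually compared with control pots.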

[25] = tested on: ducksalad (Heteranthera limosa); assay: as above; conditions: 250 g ai/ha, Flood, applied to paddy water, evaluated after 13 days
Method in brief: as §2

[26] = tested on: barnyardgrass (Echinochloa crusgalli); assay: as above; conditions: 250 g ai/ha, Flood, applied to paddy water, evaluated after 13 days
Method in brief: as §2

[27] = tested on: sedge, umbrella (small-flower umbrella sedge, Cyperus difformis); assay: as above; conditions: 250 g ai/ha, Flood, applied to paddy water, evaluated after 13 days
Method in brief: as §2

[28] = 62 g ai/ha, postemergence, 10 days, 0 = no effect, 100 = complete control
[29] = Postemergence, 16 g ai/ha, greenhouse 10 days, 0 no effect, 100 complete control
[30] = 62 g ai/ha, 0 = no effect, 100 = complete control

C=CC1(C(=O)NC2C=CC(C(=O)OC)C2)CN(c2cc(F)cc(F)c2)C(=O)O1 (single isomer, unassigned) [Compound 168]
Ryegrass, Italian plant response rating (0-100) [1, 28]: 0 | Ryegrass, Italian plant response rating (0 to 100 scale) [1, 29]: 0 | Foxtail, Green plant response rating (0-100) [2, 28]: 0 | Foxtail, Green plant response rating (0 to 100 scale) [2, 29]: 0 | Pigweed, Palmer plant response rating (0-100) [3, 28]: 0 | Pigweed, Palmer plant response rating (0 to 100 scale) [3, 29]: 0 | Ragweed plant response rating (0-100) [4, 28]: 0 | Ragweed plant response rating (0 to 100 scale) [4, 29]: 0 | Horseweed plant response rating (0-100) [5, 28]: 0 | Horseweed plant response rating (0 to 100 scale) [5, 29]: 0 | Galium plant response rating (0-100) [6, 28]: 0 | Galium plant response rating (0 to 100 scale) [6, 29]: 0 | Oat, Wild plant response rating (0-100) [7, 28]: 0 | Oat, Wild plant response rating (0 to 100 scale) [7, 29]: 0 | Blackgrass plant response rating (0-100) [8, 28]: 0 | Blackgrass plant response rating (0 to 100 scale) [8, 29]: 0 | Soybean plant response rating (0-100) (soybean (Glycine max) [9]; [28]): 0 | Soybean plant response rating (0 to 100 scale) (soybean (Glycine max) [9]; [29]): 0 | Wheat plant response rating (0-100) [10, 28]: 0 | Wheat plant response rating (0 to 100 scale) [10, 29]: 0 | Kochia plant response rating (0-100) (kochia (Bassia scoparia) [11]; [28]): 0 | Kochia plant response rating (0 to 100 scale) (kochia (Bassia scoparia) [11]; [29]): 0 | Barnyardgrass plant response rating (0-100) [12, 28]: 20 | Barnyardgrass plant response rating (0 to 100 scale) [12, 29]: 10 | Corn plant response rating (0-100) (corn (Zea mays) [13]; [28]): 10 | Corn plant response rating (0 to 100 scale) (corn (Zea mays) [13]; [29]): 0 | Ryegrass, Italian plant response rating ([14]; 16 g ai/ha, 0 to 100 scale): 0 | Ryegrass, Italian plant response rating (0-100) [14, 30]: 0 | Foxtail, Green plant response rating ([15]; 16 g ai/ha, 0 to 100 scale): 0 | Foxtail, Green plant response rating (0-100) [15, 30]: 0 | Pigweed, Palmer plant response rating ([16]; 16 g ai/ha, 0 to 100 scale): 0 | Pigweed, Palmer plant response rating (0-100) [16, 30]: 0 | Ragweed plant response rating ([17]; 16 g ai/ha, 0 to 100 scale): 0 | Ragweed plant response rating (0-100) [17, 30]: 0 | Oat, Wild plant response rating ([18]; 16 g ai/ha, 0 to 100 scale): 0 | Oat, Wild plant response rating (0-100) [18, 30]: 0 | Blackgrass plant response rating ([19]; 16 g ai/ha, 0 to 100 scale): 0 | Blackgrass plant response rating (0-100) [19, 30]: 0 | Soybean plant response rating (soybean (Glycine max) [20]; 16 g ai/ha, 0 to 100 scale): 0 | Soybean plant response rating (0-100) (soybean (Glycine max) [20]; [30]): 0 | Wheat plant response rating ([21]; 16 g ai/ha, 0 to 100 scale): 0 | Wheat plant response rating (0-100) [21, 30]: 0 | Kochia plant response rating (kochia (Bassia scoparia) [22]; 16 g ai/ha, 0 to 100 scale): 0 | Kochia plant response rating (0-100) (kochia (Bassia scoparia) [22]; [30]): 0 | Barnyardgrass plant response rating ([23]; 16 g ai/ha, 0 to 100 scale): 0 | Barnyardgrass plant response rating (0-100) [23, 30]: 0 | Corn plant response rating (corn (Zea mays) [24]; 16 g ai/ha, 0 to 100 scale): 0 | Corn plant response rating (0-100) (corn (Zea mays) [24]; [30]): 0 | Plant response rating, Rice (0 to 100 scale, 0 is no effect and 100 is complete control) (rice (Oryza sativa)): 0 | Plant response rating, Ducksalad (0 to 100 scale, 0 is no effect and 100 is complete control) [25]: 0 | Plant response rating, Barnyardgrass (0 to 100 scale, 0 is no effect and 100 is complete control) [26]: 0 | Plant response rating, Sedge, Umbrella (0 to 100 scale, 0 is no effect and 100 is complete control) [27]: 0
